In patent US8357350B2, “Annulus fibrosus detection in intervertebral discs using molecular imaging agents” (General Electric Company, priority 2009, dated 2013):

Key:
intervertebral discs = experiment: Two-wavelength imaging of resected spine with Pam800 and FORMULA IA; type: in vivo, Sprague-Dawley rat; settings: rat
Experimental: Imaging was carried out at near infrared wavelenghts using a 400- to 700-nm “white” light (0.5 mW/cm^2) and a 725- to 775-nm NIR fluorescence excitation light (5 mW/cm^2). Fluorescence images were collected using exposure times ranging from 500 to 2000 msec. All images collected for comparison between vehicle-injected control animals and FM fluorophore-injected animals had the same exposure time and normalization. Color video images were collected on a separate optical channel using custom designed software. The excitation and emission LEDs and filter used for the FM fluorophores and Pam800 in the intraoperative imaging system are described as follows. For fluorescence excitation of FM 1-43, FM 2-10, FM 1-43FX and Formula IA, sixty 5-mm 470 nm LEDs (Epitex, Inc., Kyoto, Japan) fitted with 470±20 nm band pass (BP) excitation filters (Chroma Technology, Rockingham, Vt.) in custom holders were used, which produced a fluence rate on the imaging surface of 0.56 mW/cm^2. For fluorescence excitation of Formula II, FM 4-64, FM 4-64FX and FM 5-95, sixty 5-mm 535 nm LEDs fitted with 525±25 nm BP excitation filters were used, which produced a fluence rate on the imaging surface of 0.34 mW/cm^2. A 610±38 nm BP filter was used to detect fluorescence emission of FM 1-43, FM 2-10, Formula II, FM 1-43FX and Formula IA. […]

[1] = Absorbance and fluorescence spectra of FM fluorophores in solvents; type: physicochemical
Experimental: (§1) Absorbance and fluorescence spectra of the FM fluorophores were measured in PBS and absolute methanol (MeOH) using fiber-optic HR2000 (200-1100 nm) and USB2000FL (350-1000 nm) spectrometers (Ocean Optics, Dunedin, Fla.), respectively. Fluorescence excitation was provided by a 2 mW, 532 nm laser diode. The fluorescence and absorbance spectra of FORMULA II and FORMULA IA were collected in dimethyl sulfoxide (DMSO) and fetal bovine serum (FBS), as well as MeOH and PBS. The quantum yield of FORMULA II and FORMULA IA in DMSO, MeOH, FBS and PBS was measured by comparing the integrated fluorescence emission of the fluorophores in each solvent to the emission of Alexa Fluor 555 (Invitrogen) in PBS (quantum yield=10%) as a reference standard under conditions of matched absorbance at the excitation wavelength. The LogD of each FM fluorophore at pH 7.5 was calculated using Marvin 5.0.3 software (ChemAxon, Budapest, Hungary).

[2] = Fluorescence quantum yield versus Alexa Fluor 555 reference; type: physicochemical; settings: highest in FBS among DMSO, MeOH, PBS
Experimental: as §1

Structure (SMILES): CCCCN(CCCC)c1ccc(/C=C/c2cc[n+](CCC[N+](C)(C)C)cc2)cc1.[Br-].[Br-] [Formula IA, (E)-4-(4-(dibutylamino)styryl)-1-(3-(trimethylammonio)propyl)pyridinium dibromide]
- overlap of signals with Pam800 (bone) (intervertebral discs; 7.5 nmol Pam800 16 h and 2 mg/kg Formula IA 4 h post-IV): no overlap
- specificity of fluorescence signal in the spine (intervertebral discs; 2 mg/kg IV, 4 h, sagittal spine and disc cross-section): specific for the intervertebral discs
- Em nm (MeOH) ([1]; emission maximum in MeOH): 624 nm
- Em nm (PBS) ([1]; emission maximum in PBS): 628 nm
- Ex nm (MeOH) ([1]; excitation maximum in MeOH): 510 nm
- Ex nm (PBS) ([1]; excitation maximum in PBS): 497 nm
- fluorescence quantum yield, times higher in FBS [2]: 5 times
